Results on two molecules are retold here after patent US9072660B2, “Topical itraconazole formulations and uses thereof” (THE BOARD OF TRUSTEES OF THE LELAND STANFORD JUNIOR …, priority 2011, dated 2015).

The subject of data set [1] is BCC tumors. Nature of the data set: oral itraconazole on endogenous BCC tumors in PTCH1+/- K14-Cre-ER2 p53fl/fl mice. The class given is in vivo.
The subject of data set [2] is ASZ BCC tumor cell line (GLI1 mRNA). Nature of the data set: GLI1 mRNA expression in BCC tumor cell line ASZ. It is filed as cell-based, mice. Conditions: ASZ cells, vs DMSO control.
The conditions of data set [3]: cited from earlier work.
For data set [4] the following is noted: cited from earlier work. This is another data set of the same source.
The test system of data set [5] is BCC tumors. Kind of data set: oral itraconazole in patients with BCC tumors. It is filed as in vivo, humans. Conditions: oral 400 mg per day for 1 month.
Data set [6] concerns BSZ BCC tumor cell line (GLI1 mRNA). Kind of data set: GLI1 mRNA expression in BCC tumor cell line BSZ. The note with it: BSZ cells, vs DMSO control. It is filed as cell-based, mice.
Data set [7] relates to Hedgehog signaling pathway (Smo). Conditions: cited from earlier work.
The subject of another data set is BCCs (Smo). The note with it: cited from earlier work.

On to `CCC(C)n1ncn(-c2ccc(N3CCN(c4ccc(OC[C@H]5CO[C@](Cn6cncn6)(c6ccc(Cl)cc6Cl)O5)cc4)CC3)cc2)c1=O` (relative stereo) [itraconazole, (2R,4S)-rel-1-(butan-2-yl)-4-{4-[4-(4-{[(2R,4S)-2-(2,4-dichlorophenyl)-2-(1H-1,2,4-triazol-1-ylmethyl)-1,3-dioxolan-4-yl]methoxy}phenyl)piperazin-1-yl]phenyl]-4,5-dihydro-1H-1,2,4-triazol-5-one], for which the “serum concentrations required for oral anti-BCC effect in mouse vs those reached in humans at regular therapeutic doses (400 mg/day orally)” value in the data set on BCC tumors [1] (in vivo mouse studies) is “appreciably higher”. Moreover, in the data set with BCC tumors [1] (itraconazole 400 mg/day vs cyclodextrin control treated mice, P<0.02, FIG. 2 left), the BCC tumor necrosis result is on record as “caused BCC tumor necrosis”. In the data set with BCC tumors [1] (oral gavage, 200 mg BID, in 15 days, vs control (cyclodextrin or acetone), P<0.05, FIG. 1), the “reduction of BCC tumor size” value came out at 50%. In addition, the “GLI1 mRNA expression” value in data set [2] (0.1 μM), in data set [2] (1.0 μM), in data set [6] (0.1 μM) and in data set [6] (1.0 μM) was “reduced” throughout. Moreover, the Protein binding in data set [3] is 99.8%. For the same molecule, the Half-life in data set [4] (in vivo) is 21 h. In addition, in data set [4] (with meal), the “Oral Bio-availability” value was 55%. Also, the “change of BCC tumor size on average (95% Confidence Interval: 11% to −62%)” value in the data set with BCC tumors [5] is recorded as −21%. Besides, in data set [7], the “ciliary accumulation of Smo normally caused by HH stimulation” value is recorded as “prevents”. Besides, in data set [7] (model cell-based assays, by binding to Smo), the “inhibition of the HH signaling pathway” value is reported as “potently inhibited”. Further, the “expression of the HH target gene GLI1” value in data set [7] (model cell-based assays) is reported as “decreased”.

On to `CC1=C2C[C@H]3[C@@H](CC=C4C[C@@H](O)CC[C@@]43C)[C@@H]2CC[C@]12O[C@@H]1C[C@H](C)CN[C@H]1[C@H]2C` [cyclopamine], for which, in the data set with BCCs (Smo) (model systems (in vitro and in vivo)), the “inhibition of BCCs” value was “effectively inhibited”. The side effects result in the data set with BCCs (Smo) (systemic use) is given as “severe side effects”.
